Peptide text beside a SMILES is read from it.
Key:
[1] = system: myocardial ATP levels; assay: Myocardial ATP levels in hearts of streptozotocin-treated rats; details: hearts 6 weeks after STZ injection (50 mg/kg)
[2] = system: mitochondrial δPKC levels; assay: Mitochondrial δPKC levels (Western blot) in hearts of streptozotocin-treated rats; details: hearts 6 weeks after STZ injection (50 mg/kg)
[3] = molecular target: T1, δPKC-dF1Fo co-IP (Rattus norvegicus, UniProt P09215); assay: δPKC co-immunoprecipitation with dF1Fo in NCM mitochondria after phorbol ester; assay type: cell-based; details: 100 nM 4-β PMA, 20 min, NCMs
T1 construct: endogenous in cells; host or cells: neonatal rat cardiac myocytes (NCMs), isolated mitochondria
T1 sequence (P09215 whole entry): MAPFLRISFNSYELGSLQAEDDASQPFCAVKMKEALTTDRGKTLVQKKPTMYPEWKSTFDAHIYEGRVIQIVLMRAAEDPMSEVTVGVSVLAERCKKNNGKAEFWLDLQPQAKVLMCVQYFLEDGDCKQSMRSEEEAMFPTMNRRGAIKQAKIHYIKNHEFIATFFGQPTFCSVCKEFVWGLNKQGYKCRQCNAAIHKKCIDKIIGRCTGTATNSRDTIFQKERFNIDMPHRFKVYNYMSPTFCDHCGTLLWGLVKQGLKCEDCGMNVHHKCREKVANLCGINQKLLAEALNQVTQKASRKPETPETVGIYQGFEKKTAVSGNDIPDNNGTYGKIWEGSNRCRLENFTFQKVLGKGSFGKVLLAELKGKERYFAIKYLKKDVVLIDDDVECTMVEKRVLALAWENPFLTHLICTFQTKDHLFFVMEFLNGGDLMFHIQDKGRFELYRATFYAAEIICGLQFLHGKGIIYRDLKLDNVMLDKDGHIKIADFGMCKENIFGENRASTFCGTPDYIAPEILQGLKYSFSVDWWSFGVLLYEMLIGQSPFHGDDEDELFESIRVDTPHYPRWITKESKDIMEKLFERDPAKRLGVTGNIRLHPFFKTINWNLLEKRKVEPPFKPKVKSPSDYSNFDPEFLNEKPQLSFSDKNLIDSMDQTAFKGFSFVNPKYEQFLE
T1 sequence (P31399 2-161 partner limits assumed): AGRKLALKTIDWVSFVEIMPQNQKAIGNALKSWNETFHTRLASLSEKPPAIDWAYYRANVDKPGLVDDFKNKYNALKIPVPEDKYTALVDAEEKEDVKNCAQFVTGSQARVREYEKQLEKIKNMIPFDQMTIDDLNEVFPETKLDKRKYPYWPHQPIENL
Method: FIGS. 1A-1B: Delta protein kinase C (δPKC) co-immunoprecipitates (co-IPs) with the “d” subunit of F1Fo ATP synthase (dF1Fo) following 100 nM 4-β PMA treatment. Neonatal cardiac myocytes (NCMs) were treated with 100 nM 4-α PMA (0 nM in Figure), 3 nM 4-β PMA for 1 hr. or 100 nM 4-β PMA for 20 min. Mitochondria were isolated using Percoll/Optiprep density gradients and then subjected to immunoprecipitations using antisera to dF1Fo. IPs were resolved by […] and transferred onto nitrocellulose paper (NCP) followed by Western blot analyses using antisera against αPKC, δPKC, εPKC and ζPKC. FIG. 1A, representative autoradiographs for each PKC isozyme are shown. FIG. 1B, mean±S.E. densitometry values for three independent myocyte preparations. Asterisks indicate significant differences between 4-α PMA and 3 nM or 100 nM 4-β PMA (p<0.05). # indicates statistically significant differences between 3 and 100 nM 4-β PMA (p<0.05).
Phorbol esters such as 4-β phorbol 12-myristate-13-acetate (4-β PMA), are well known activators of most PKC isozymes and should be useful in determining if one or more PKC isozymes induced effects on the F1Fo complex. […] In FIG. 1, 4-α PMA is shown as “0” concentration and […] values are reported for 3-100 nM concentrations. IPs were next subjected to Western blot analyses with anti-PKC isozyme-selective antisera. […]

[4] = molecular target: T2, δPKC binding to dF1Fo (Rattus norvegicus, UniProt P09215); assay: PKC overlay binding assay; details: overlay with purified PKC isozymes, DG/PS; read-out: IC50 for modulation of δPKC-dF1Fo binding
T2 construct: with purified rat brain PKC (mixture of PKC isozymes); from tissue; host or cells: PKC from rat brain; F1Fo ATPase holo-enzyme from adult rat cardiac ventricle
T2 sequence (P09215 whole entry): as the sequence (P09215 whole entry) above

[5] = system: isolated rat hearts, ischemia/reperfusion injury; assay: Infarct size (TTC staining) after ischemia/reperfusion in isolated rat hearts
Method: Hearts were excised from 2 month-old Sprague-Dawley rats and subjected to Langendorff-mode perfusion with oxygenated Kreb's buffer. Following a 20 min equilibration to attain stable beating hearts either were perfused continuously for 110 minutes (Con) or were subjected to 20 minutes of global no-flow ischemia and then 90 minutes of oxygenated reperfusion (IR). For groups receiving the δPKC-dF1Fo inhibitor or facilitator peptides (complete amino acid sequences shown in FIG. 13) 20 nM concentrations of the peptides were given at the onset of the 90 minute reperfusion period for 20 minutes. At the termination of experimentation atria were removed and ventricles were rapidly washed in chilled Kreb's buffer and partially frozen to facilitate cutting the hearts into sections. […]
Histograms represent mean±S.E. infarction expressed as a percentage of the entire left ventricular area. […]
The effects of the peptides of the present invention on infarct size following IR injury in the Langendorff model was assessed, Hearts were perfused in the absence of peptide, under normoxic conditions for 110 minutes (Con), or were given a 20 minute global, no flow, ischemia exposure followed by normoxic perfusion for 90 minutes. δPKC-dF1Fo modulatory peptides (20 nM) were administered at the onset of reperfusion for 20 minutes. […]

**Q.** What does the source list for `CN(N=O)C(=O)N[C@H]1C(O)O[C@H](CO)[C@@H](O)[C@@H]1O` (mixture of isomers) [STZ, streptozotocin]?
**A.** decrease of myocardial ATP levels [1]: 2.3±0.1 fold; increase in mitochondrial δPKC levels [2]: greater than 10 fold

**Q.** With `CCCCCCCCCCCCCC(=O)O[C@@H]1[C@@H](C)[C@@]2(O)[C@@H](C=C(CO)C[C@]3(O)C(=O)C(C)=C[C@@H]23)[C@@H]2C(C)(C)[C@]12OC(C)=O` [4-β PMA, 4-β phorbol 12-myristate-13-acetate] as the compound, how does the “increase of δPKC-dF1Fo co-IP above 3 nM 4-β PMA-induced levels” value [3] read?
**A.** 3.4±0.3 fold

**Q.** For `CC[C@H](C)[C@H](NC(=O)[C@@H](NC(=O)[C@H](CCCCN)NC(=O)[C@H](CC(C)C)NC(=O)[C@H](C)NC(=O)[C@H](CC(C)C)NC(=O)[C@H](CCCCN)NC(=O)[C@H](CCCNC(=N)N)NC(=O)CNC(=O)[C@H](C)N)[C@@H](C)O)C(=O)N[C@@H](CC(=O)O)C(=O)N[C@@H](Cc1c[nH]c2ccccc12)C(=O)N[C@H](C(=O)N[C@@H](CO)C(=O)N[C@@H](Cc1ccccc1)C(=O)O)C(C)C` [SEQ ID NO: 1, AGRKLALKTIDWVSF] (H-AGRKLALKTIDWVSF-OH; N-terminus and C-terminus assumed), which IC50 [4] is on record?
**A.** ~300 µM

**Q.** How did the IC50 [4] turn out when `CC[C@H](C)[C@H](NC(=O)[C@H](CCSC)NC(=O)[C@H](CC(N)=O)NC(=O)[C@H](CCCCN)NC(=O)[C@@H](NC(=O)[C@H](CCCCN)NC(=O)[C@H](CCC(=O)O)NC(=O)[C@H](CC(C)C)NC(=O)[C@H](CCC(N)=O)NC(=O)[C@H](CCCCN)NC(=O)[C@H](CCC(=O)O)NC(=O)[C@H](Cc1ccc(O)cc1)NC(=O)[C@H](CCC(=O)O)NC(=O)[C@H](CCCNC(=N)N)NC(=O)[C@@H](NC(=O)[C@@H](N)CCCNC(=N)N)C(C)C)[C@@H](C)CC)C(=O)O` [SEQ ID NO: 2, RVREYEKQLEKIKNMI] (H-RVREYEKQLEKIKNMI-OH; N-terminus and C-terminus assumed) was run?
**A.** ~300 µM

**Q.** “YGRKKRRQRRR-MLATRALSLIGKRAISTSVC-RVRE YEKQLEKIKNMI-DYKDDDDK (YGRKKRRQRRRMLATRALSLIGKRAISTSVCRVREYEKQLEKIKNMIDYKDDDDK; sequence of mitochondrial-targeted facilitator of dPKC-dF1Fo interaction) [PKC-dF1Fo agonist peptide]” was tested. Which enhancement of infarction [5] did it give?
**A.** 27±3%
